# Test results as given in patent EP0513997A1, “Antithrombotic compositions” (CHINOIN Gyogyszer és Vegyészeti Termékek Gyára RT., priority 1991, dated 1992).
# Legend:
# rabbit platelets [1] = assay: In vitro rabbit platelet aggregation induced by ADP, collagen, AA or A 23187 Ca ionophor; format: cell-based
# Description: We compared on rabbit platelets the in vitro antiaggregatory effect , of acetylsalicylic acid (ASA), salicylic acid (SA). Pentoxifylline (Pentox or Trental), Nospa, Papaverine and Depogen. The aggregation of the rabbit platelets was induced by adenosine diphosphate (ADP), arachidonic acid (AA), Collagen and A 23187 Ca ionophor.
# rabbit platelets [2] = assay: Inhibition of PAF induced platelet aggregation; format: cell-based; conditions: aggregation induced by 1 µM of PAF
# rabbit platelets [3] = assay: Inhibition of PAF induced serotonine release in platelets; format: cell-based; conditions: release induced by 5 x 10⁻⁸ M of PAF
# platelet aggregation = assay: Ex vivo platelet aggregation after administration; format: in vivo, rabbits
# thrombus formation = assay: In vivo thrombus formation on cotton thread in arterio-venous plastic vessel shunt; parameters: species or system anaesthetised rabbits
# Experimental: We investigated furthermore the in vivo antithrombotic effect of Depogen on anaesthetised rabbits. Depogen was administered intravenously in a dose range of 2.5-7.5 mg/kg. The vena yugularis was connected with the arteria carotis with the help of a plastic vessel. In the plastic vessel a cotton thread was placed, which served as inductor. The amount of thrombus sticked to the surface of the cotton was weighed in the case of the treated and untreated animals (after Herrmann R.G. et al., Proc. Soc. Exp. Biol. Med. 139, 548-552, 1972.)
# [4] = tested on: prostacyclin release from the aorta; assay: In vitro prostacyclin (PGI2) release from the aorta; format: cell-based; conditions: in vitro (Figure 6)
# Description: From the point of view of PGI2 release Depogen represents a considerable […] compared to Pentoxifylline, as the ratio of the doses inhibiting platelet aggregation and increasing PGI2 release is lower for Depogen than for Pentoxifylline (Table 6) and thus the effective dose ranges of the two actions are closer to each other in the case of Depogen.
# [5] = tested on: thromboxane and prostacyclin level of the blood plasma; assay: Thromboxane and prostacyclin level of the blood plasma after 4 days per os administration; format: in vivo; conditions: rat, determined on the 5th day
# Experimental: We investigated the effect of Depogen on the thromboxane and prostacyclin level of the blood plasma, in rat, after 4 days of per os administration in doses of 5 mg/kg and 10 mg/kg. On the 5th day we determined the thromboxane and prostacyclin level of the blood plasma (Table 7).
# [6] = tested on: acified ethanol- and indomethacine- induced ulceration; assay: Acidified ethanol- and indomethacin-induced ulceration; format: in vivo; conditions: rat, in the antiaggregatory dose
# Description: The active ingredients according to the present invention, first of all Depogen, have further advantages compared with the widespreadly used ASA. ASA has significant gastrointestinal adverse effects, such as peptic ulcer, gastric haemorrhage. Depogen has no such adverse effect, and what is more, it has a weak ulcus-preventing activity. According to the measurements, in the antiaggregatory dose it exerts a 25-50 % inhibition on the acified ethanol- and indomethacine- induced ulceration in rat.
# [7] = Oryctolagus cuniculus, Platelet, aggregation induced by A-23187 Ca ionophor, in vitro, read-out: IC50 rabbit platelet aggregation, A-23187
# [8] = Oryctolagus cuniculus, Platelet, aggregation induced by ADP, in vitro, read-out: IC50 rabbit platelet aggregation, ADP
# [9] = Oryctolagus cuniculus, Platelet, aggregation induced by Collagen, in vitro, read-out: IC50 rabbit platelet aggregation, Collagen
# [10] = Oryctolagus cuniculus, Platelet, aggregation induced by arachidonic acid (AA), in vitro, read-out: IC50 rabbit platelet aggregation, AA
# [11] = Table 5, unit inferred, aggregation induced by A 23187, read-out: Antiaggregatory Effect A 23187
# [12] = Table 5, unit inferred, aggregation induced by AA, read-out: Antiaggregatory Effect AA
# [13] = Table 5, unit inferred, aggregation induced by ADP, read-out: Antiaggregatory Effect ADP
# [14] = Table 5, unit inferred, aggregation induced by Collagen, read-out: Antiaggregatory Effect Collagen
# [15] = aggregation induced by A-23187 Ca ionophor, in vitro, read-out: IC50 rabbit platelet aggregation, A-23187
# [16] = aggregation induced by ADP, in vitro, read-out: IC50 rabbit platelet aggregation, ADP
# [17] = aggregation induced by Collagen, in vitro, read-out: IC50 rabbit platelet aggregation, Collagen
# [18] = aggregation induced by arachidonic acid (AA), in vitro, read-out: IC50 rabbit platelet aggregation, AA
# [19] = Oryctolagus cuniculus, Platelet
# [20] = p.o. 10 mg/kg/day during 4 days
# [21] = Oryctolagus cuniculus, Platelet, read-out: IC50 rabbit platelet aggregation, A-23187
# [22] = Oryctolagus cuniculus, Platelet, read-out: IC50 rabbit platelet aggregation, AA
# [23] = Oryctolagus cuniculus, Platelet, read-out: IC50 rabbit platelet aggregation, ADP
# [24] = Oryctolagus cuniculus, Platelet, read-out: IC50 rabbit platelet aggregation, Collagen
SMILES,IC50 (rabbit platelets [1]; [7]) [µM],IC50 (rabbit platelets [1]; [8]) [µM],IC50 (rabbit platelets [1]; [9]) [µM],IC50 (rabbit platelets [1]; [10]) [µM],IC50 (rabbit platelets [1]; [11]) [µM],IC50 (rabbit platelets [1]; [12]) [µM],IC50 (rabbit platelets [1]; [13]) [µM],IC50 (rabbit platelets [1]; [14]) [µM],IC50 (rabbit platelets [1]; [15]) [µM],IC50 (rabbit platelets [1]; [16]) [µM],IC50 (rabbit platelets [1]; [17]) [µM],IC50 (rabbit platelets [1]; [18]) [µM],IC50 (rabbit platelets [2]; [19]) [µM],IC50 (rabbit platelets [3]; [19]) [µM],IC50 (rabbit platelets [1]; [21]) [µM],IC50 (rabbit platelets [1]; [22]) [µM],IC50 (rabbit platelets [1]; [23]) [µM],IC50 (rabbit platelets [1]; [24]) [µM],further results
"CC(=O)Oc1ccccc1C(=O)O [ASA, acetylsalicylic acid, reference compound]",2440,4050,2610,780,,,,,,,,,,,,,,,
"CCOc1ccc(CC2=NCCc3cc(OCC)c(OCC)cc32)cc1OCC [Depogen, (3′,4′-diethoxy-benzyl)-6,7-diethoxy-3,4-dihydroisoquinolinium theophyllin-7-acetate]",,,,,228,240,247,140,230,247,140,240,684,118,,,,,"antiaggregatory effect, times stronger than that of ASA (rabbit platelets [1]; compared with ASA, in vitro): 10-20 times; inhibition at 2.5 mg/kg (platelet aggregation; Oryctolagus cuniculus, Platelet, iv, dose 2.5 mg/kg intravenously, read-out: Inhibitory Effect % ex vivo aggregation): 30 ± 4%; inhibition at 5 mg/kg (platelet aggregation; Oryctolagus cuniculus, Platelet, iv, dose 5.0 mg/kg intravenously, read-out: Inhibitory Effect % ex vivo aggregation): 45 ± 5%; inhibition at 7.5 mg/kg (platelet aggregation; Oryctolagus cuniculus, Platelet, iv, dose 7.5 mg/kg intravenously, read-out: Inhibitory Effect % ex vivo aggregation): 55 ± 6%; antiaggregatory effect in ex vivo experiments (platelet aggregation; after oral and intravenous administration (Figures 3 and 4)): significant antiaggregatory effect; Inhibitory Effect % in vivo thrombus formation (thrombus formation; dose 2.5 mg/kg intravenously): 25± 3%; Inhibitory Effect % in vivo thrombus formation (thrombus formation; dose 5.0 mg/kg intravenously): 45± 5%; Inhibitory Effect % in vivo thrombus formation (thrombus formation; dose 7.5 mg/kg intravenously): 60± 7%; prostacyclin release from the aorta [4]: significantly enhances; PGI2 ([5]; p.o. 5 mg/kg/day during 4 days): 206.4± 11.2 pg/ml of plasma; PGI2/TxA2 ([5]; p.o. 5 mg/kg/day during 4 days): 4.2; TxA2 ([5]; p.o. 5 mg/kg/day during 4 days): 48.7± 3.9 pg/ml of plasma; PGI2 [5, 20]: 363.8± 19.3 pg/ml of plasma; PGI2/TxA2 [5, 20]: 11; TxA2 [5, 20]: 33.7± 3.6 pg/ml of plasma; inhibition on the acified ethanol- and indomethacine- induced ulceration [6]: 25-50%"
"CCOc1ccc(CC2=NCCc3cc(OCC)c(OCC)cc32)cc1OCC [Nospa, 1-(3-,4′-diethoxybenzyl)-6,7-diethoxy-3,4-dihydro-iso-quinoline]",,,,,840,810,740,580,840,740,580,810,,,,,,,IC50 (rabbit platelets [2]): 756 µM; IC50 (rabbit platelets [3]): 96 µM
"COc1ccc(Cc2nccc3cc(OC)c(OC)cc23)cc1OC [Papaverine, 1-(3′,4′-dimethoxy-benzyl)-6,7-dimethoxy-isoquinoline]",,,,,,,,,,,,,656,48.2,1060,130,190,270,"IC50 (rabbit platelets [1]; Oryctolagus cuniculus, Platelet, read-out: Antiaggregatory Effect A 23187): 1060 µM; IC50 (rabbit platelets [1]; Oryctolagus cuniculus, Platelet, read-out: Antiaggregatory Effect AA): 130 µM; IC50 (rabbit platelets [1]; Oryctolagus cuniculus, Platelet, read-out: Antiaggregatory Effect ADP): 190 µM; IC50 (rabbit platelets [1]; Oryctolagus cuniculus, Platelet, read-out: Antiaggregatory Effect Collagen): 270 µM"
"CC(=O)CCCCn1c(=O)c2c(ncn2C)n(C)c1=O [Pentoxifylline, reference compound]",2770,2660,2050,1870,,,,,,,,,1000,800,,,,,"IC50 (rabbit platelets [1]; Oryctolagus cuniculus, Platelet, Table 5, unit inferred, aggregation induced by AA, read-out: Antiaggregatory Effect AA): 1870 µM; IC50 (rabbit platelets [1]; Oryctolagus cuniculus, Platelet, Table 5, unit inferred, aggregation induced by ADP, read-out: Antiaggregatory Effect ADP): 2660 µM; IC50 (rabbit platelets [1]; Oryctolagus cuniculus, Platelet, Table 5, unit inferred, aggregation induced by Collagen, read-out: Antiaggregatory Effect Collagen): 2050 µM"
"O=C(O)c1ccccc1O [Salicylic acid, salicylic acid, reference compound]",,,,,,,,,,,,,,,2610,1010,1380,1300,
